Data on 27 compounds can be found in patent US9242998B2, “Tetracyclic heterocycle compounds and methods of use thereof for the treatment of hepatitis C” (priority 2013, dated 2016).

The test system of one assay is HCV genotype 1a replicon. Briefly: HCV replicon assay, genotype 1a (cell ELISA for replicon-encoded NS3/4A). The conditions noted are these: Hepatitis C virus, 96 h, read-out: 1a IC50. The format is cell-based. Here is the method:
(§1) Measurement of inhibition by compounds was performed using the HCV replicon system. Several different replicons encoding different HCV genotypes or mutations were used. In addition, potency measurements were made using different formats of the replicon assay, including different ways of measurements and different plating formats. See Jan M. Vrolijk et al., A replicons-based bioassay for the measurement of interferons in patients with chronic hepatitis C, 110 J. V[…] 201 (2003); Steven S. Carroll et al., Inhibition of Hepatitis C Virus RNA Replication by 2′-Modified Nucleoside Analogs, 278(14) J. BIOLOGICAL CHEMISTRY 11979 (2003). However, the underlying principles are common to all of these determinations, and are outlined below.
(§2) Stable neomycin phosphotransferase encoding replicons-harboring cell lines were used, so all cell lines were maintained under G418 selection prior to the assay. Potency was determined using a cell ELISA assay with an antibody to the replicons encoded NS3/4a protease. See Caterina Trozzi et al., In Vitro Selection and Characterization of Hepatitis C Virus Serine Protease Variants Resistant to an Active-Site Peptide Inhibitor, 77(6) J. Virol. 3669 (2003). To initiate an assay, replicon cells were plated in the presence of a dilution series of test compound in the absence of G418. Typically, the assays were performed in a 96-well plate formate for manual operation, or a 384-well plate format for automated assay. Replicon cells and compound were incubated for 96 hours. At the end of the assay, cells were washed free of media and compound, and the cells were then lysed. RNA was quantified indirectly through detection of replicon-encoded NS3/4A protein levels, through an ELISA-based assay with an antibody specific for NS3/4A. IC50 determinations were calculated as a percentage of a DMSO control by fitting the data to a four-parameter fit function and the data obtained is provided in the table below.
(§3) Data for selected compounds of the present invention was obtained for genotypes 1a and 1b using this method and is provided in the table below: […]

The test system of a further assay is HCV genotype 1b replicon. The assay can be described thus: HCV replicon assay, genotype 1b (cell ELISA for replicon-encoded NS3/4A). The format is cell-based. The conditions noted are these: Hepatitis C virus, 96 h, read-out: 1b IC50. Here is the method: as §1, §2, §3
(A replicon is a self-replicating genome or part of one, used to study replication in cells.)

For orientation: IC50 means the point on the concentration scale where inhibition reaches its midpoint. As for `CNC(=O)c1c(N2CCOCC2)oc2cc(N(C)S(C)(=O)=O)c(-c3ccc4c(n3)-c3cc5c(F)cccc5n3CO4)cc12` [Compound 42, 5-(11-fluoro-6H-pyrido[2′,3′:5,6][1,3]oxazino[3,4-a]indol-2-yl)-N-methyl-6-(N-methylmethylsulfonamido)-2-morpholinobenzofuran-3-carboxamide], the figures for the half-maximal inhibitory concentration (IC50) in the assay with HCV genotype 1a replicon and in the assay on HCV genotype 1b replicon were 85 nM and 35 nM, respectively.

As for `CNC(=O)c1c(C2CC2)oc2cc(N(C)S(C)(=O)=O)c(-c3ccc4c(n3)-c3cc5c(F)cccc5n3CO4)cc12` [Compound 2], the figures for the IC50 in the assay on HCV genotype 1a replicon and in the assay on HCV genotype 1b replicon were 13 nM and 12 nM, respectively.

Regarding `CNC(=O)c1c(-c2cn(C)nc2C)oc2cc(N(C)S(C)(=O)=O)c(-c3ccc4c(n3)-c3cc5c(F)cccc5n3CO4)cc12` [Compound 16], the concentration for half-maximal inhibition (IC50) in the assay on HCV genotype 1a replicon stood at 26 nM; with HCV genotype 1b replicon, 8.5 nM.

Regarding `CNC(=O)c1c(-c2ccn(C)c(=O)c2)oc2cc(N(C)S(C)(=O)=O)c(-c3ccc4c(n3)-c3cc5c(F)cccc5n3CO4)cc12` [Compound 18, 5-(11-fluoro-6H-pyrido[2′,3′:5,6][1,3]oxazino[3,4-a]indol-2-yl)-N-methyl-2-(1-methyl-2-oxo-1,2-dihydropyridin-4-yl)-6-(N-methylmethylsulfonamido)benzofuran-3-carboxamide], the IC50 with HCV genotype 1a replicon came to 57 nM; in the assay on HCV genotype 1b replicon, 29 nM.

In the case of `CNC(=O)c1c(-c2cccnc2OC)oc2cc(N(C)S(C)(=O)=O)c(-c3ccc4c(n3)-c3cc5c(F)cccc5n3CO4)cc12` [Compound 15], the 50% inhibitory concentration (IC50) in the assay with HCV genotype 1a replicon was found to be 23 nM; in the assay on HCV genotype 1b replicon, 34 nM.

In the case of `CNC(=O)c1c(-n2cccn2)oc2cc(N(C)S(C)(=O)=O)c(-c3ccc4c(n3)-c3cc5c(F)cccc5n3CO4)cc12` [Compound 40], the IC50 in the assay on HCV genotype 1a replicon amounted to 16 nM; with HCV genotype 1b replicon it was 22 nM.

Consider `CNC(=O)c1c(-c2cccnc2O)oc2cc(N(C)S(C)(=O)=O)c(-c3ccc4c(n3)-c3cc5c(F)cccc5n3CO4)cc12` [Compound 17, 5-(11-fluoro-6H-pyrido[2′,3′:5,6][1,3]oxazino[3,4-a]indol-2-yl)-2-(2-hydroxypyridin-3-yl)-N-methyl-6-(N-methylmethylsulfonamido)benzofuran-3-carboxamide], for which the IC50 in the assay on HCV genotype 1a replicon turned out to be 324 nM; in the assay on HCV genotype 1b replicon, 393 nM.

`CNC(=O)c1c(-n2ccnc2)oc2cc(N(C)S(C)(=O)=O)c(-c3ccc4c(n3)-c3cc5c(F)cccc5n3CO4)cc12` [Compound 36, 5-(11-fluoro-6H-pyrido[2′,3′:5,6][1,3]oxazino[3,4-a]indol-2-yl)-2-(1H-imidazol-1-yl)-N-methyl-6-(N-methylmethylsulfonamido)benzofuran-3-carboxamide]: the results for the 50% inhibitory concentration (IC50) in the assay with HCV genotype 1a replicon and in the assay with HCV genotype 1b replicon were 14 nM and 20 nM, respectively.

For `CNC(=O)c1c(-c2ccc(F)cn2)oc2cc(N(C)S(C)(=O)=O)c(-c3ccc4c(n3)-c3cc5c(F)cccc5n3CO4)cc12` [Compound 30], the concentration for half-maximal inhibition (IC50) in the assay with HCV genotype 1a replicon was determined as 11 nM; with HCV genotype 1b replicon, 25 nM.

Turning to `CNC(=O)c1c(-c2ccnc(OC)c2)oc2cc(N(C)S(C)(=O)=O)c(-c3ccc4c(n3)-c3cc5c(F)cccc5n3CO4)cc12` [Compound 1, 5-(11-fluoro-6H-pyrido[2′,3′:5,6][1,3]oxazino[3,4-a]indol-2-yl)-2-(2-methoxypyridin-4-yl)-N-methyl-6-(N-methylmethylsulfonamido)benzofuran-3-carboxamide], the IC50 in the assay on HCV genotype 1a replicon was found to be 11 nM; with HCV genotype 1b replicon it was 14 nM.

For the compound `CNC(=O)c1c(C2CC2(F)F)oc2cc(N(C)S(C)(=O)=O)c(-c3ccc4c(n3)-c3cc5c(F)cccc5n3CO4)cc12` (stereo not drawn) [Compound 50, 2-(2,2-difluorocyclopropyl)-5-(11-fluoro-6H-pyrido[2′,3′:5,6][1,3]oxazino[3,4-a]indol-2-yl)-N-methyl-6-(N-methylmethylsulfonamido)benzofuran-3-carboxamide], the figures for the half-inhibitory concentration (IC50) with HCV genotype 1a replicon and in the assay with HCV genotype 1b replicon were 22 nM and 38 nM, respectively.

As to `CNC(=O)c1c(-c2ccc(OC)nc2)oc2cc(N(C)S(C)(=O)=O)c(-c3ccc4c(n3)-c3cc5c(F)cccc5n3C(CO)O4)cc12` (single isomer, unassigned) [Compound 21, (S or R)-5-(11-fluoro-6-(hydroxymethyl)-6H-pyrido[2′,3′:5,6][1,3]oxazino[3,4-a]indol-2-yl)-2-(6-methoxypyridin-3-yl)-N-methyl-6-(N-methylmethylsulfonamido)benzofuran-3-carboxamide], the results for the IC50 in the assay with HCV genotype 1a replicon and with HCV genotype 1b replicon were 2.4 nM and 2.8 nM, respectively.

Consider `CNC(=O)c1c(-c2ccc(OCC(F)(F)F)nc2)oc2cc(N(C)S(C)(=O)=O)c(-c3ccc4c(n3)-c3cc5c(F)cccc5n3C(CO)O4)cc12` (stereo not drawn) [Compound 24], for which the IC50 with HCV genotype 1a replicon turned out to be 1.7 nM; with HCV genotype 1b replicon it was 1.4 nM.

Take `CNC(=O)c1c(-c2nnc(C)o2)oc2cc(N(C)S(C)(=O)=O)c(-c3ccc4c(n3)-c3cc5c(F)cccc5n3CO4)cc12` [Compound 58, 5-(11-fluoro-6H-pyrido[2′,3′:5,6][1,3]oxazino[3,4-a]indol-2-yl)-N-methyl-2-(5-methyl-1,3,4-oxadiazol-2-yl)-6-(N-methylmethylsulfonamido)benzofuran-3-carboxamide]: the IC50 with HCV genotype 1a replicon was found to be 8.1 nM; with HCV genotype 1b replicon, 7.9 nM.

Turning to `CNC(=O)c1c(-c2ccc(C(F)F)nc2)oc2cc(N(C)S(C)(=O)=O)c(-c3ccc4c(n3)-c3cc5c(F)cccc5n3C(CO)O4)cc12` (stereo not drawn) [Compound 22], the IC50 worked out at 3.5 nM in the assay with HCV genotype 1a replicon and 2.5 nM with HCV genotype 1b replicon.

For `CNC(=O)c1c(-c2ccc(C#N)cc2)oc2cc(N(C)S(C)(=O)=O)c(-c3ccc4c(n3)-c3cc5c(F)cccc5n3CO4)cc12` [Compound 29, 2-(4-cyanophenyl)-5-(11-fluoro-6H-pyrido[2′,3′:5,6][1,3]oxazino[3,4-a]indol-2-yl)-N-methyl-6-(N-methylmethylsulfonamido)benzofuran-3-carboxamide], the IC50 in the assay on HCV genotype 1a replicon is 13 nM; in the assay on HCV genotype 1b replicon, 25 nM.

With `CNC(=O)c1c(C2CC2)oc2cc(N(C)S(C)(=O)=O)c(-c3ccc4c(n3)-c3cc5c(F)cccc5n3C(CO)O4)cc12` (single isomer, unassigned) [Compound 51, (R or S)-2-cyclopropyl-5-(11-fluoro-6-(hydroxymethyl)-6H-pyrido[2′,3′:5,6][1,3]oxazino[3,4-a]indol-2-yl)-N-methyl-6-(N-methylmethylsulfonamido)benzofuran-3-carboxamide], the figures for the half-inhibitory concentration (IC50) in the assay on HCV genotype 1a replicon and in the assay with HCV genotype 1b replicon were 8.3 nM and 15 nM, respectively.

Regarding `CNC(=O)c1c(C(=O)N(C)C)oc2cc(N(C)S(C)(=O)=O)c(-c3ccc4c(n3)-c3cc5c(F)cccc5n3CO4)cc12` [Compound 55], the values for the concentration for half-maximal inhibition (IC50) in the assay on HCV genotype 1a replicon and in the assay on HCV genotype 1b replicon were 4 nM and 6.4 nM, respectively.

For the compound `CNC(=O)c1c(-c2ccc(OC(F)F)nc2)oc2cc(N(C)S(C)(=O)=O)c(-c3ccc4c(n3)-c3cc5c(F)cccc5n3C(CO)O4)cc12` (stereo not drawn) [Compound 23], the half-inhibitory concentration (IC50) turned out to be 2.8 nM with HCV genotype 1a replicon and 2.9 nM in the assay on HCV genotype 1b replicon.

As for `CCOc1ccc(-c2oc3cc(N(C)S(C)(=O)=O)c(-c4ccc5c(n4)-c4cc6c(F)cccc6n4CO5)cc3c2C(=O)NC)cn1` [Compound 6], the IC50 in the assay with HCV genotype 1a replicon was 17 nM; with HCV genotype 1b replicon it was 12 nM.

Take `CNC(=O)c1c(C2CC2)oc2cc(N(C)S(C)(=O)=O)c(-c3cc4c(cn3)OC(CO)n3c-4cc4c(F)cccc43)cc12` (stereo not drawn) [Compound 52]: the IC50 came to 52 nM with HCV genotype 1a replicon and 23 nM in the assay on HCV genotype 1b replicon.

On to `CNC(=O)c1c(C2CC2(C)C)oc2cc(N(C)S(C)(=O)=O)c(-c3ccc4c(n3)-c3cc5c(F)cccc5n3CO4)cc12` (stereo not drawn) [Compound 49], for which the figures for the IC50 in the assay on HCV genotype 1a replicon and in the assay with HCV genotype 1b replicon were 27 nM and 22 nM, respectively.

`CNC(=O)c1c(-n2cnc(C)n2)oc2cc(N(C)S(C)(=O)=O)c(-c3ccc4c(n3)-c3cc5c(F)cccc5n3CO4)cc12` [Compound 41]: the half-maximal inhibitory concentration (IC50) in the assay with HCV genotype 1a replicon turned out to be 82 nM; with HCV genotype 1b replicon, 22 nM.

As for `CNC(=O)c1c(-c2cnn(C)c2)oc2cc(N(C)S(C)(=O)=O)c(-c3ccc4c(n3)-c3cc5c(F)cccc5n3CO4)cc12` [Compound 5], the half-maximal inhibitory concentration (IC50) in the assay with HCV genotype 1a replicon turned out to be 4.4 nM; in the assay with HCV genotype 1b replicon, 7.5 nM.

For `CNC(=O)c1c(-c2ccc(OC(F)F)nc2)oc2cc(N(C)S(C)(=O)=O)c(-c3ccc4c(n3)-c3cc5c(F)cccc5n3CO4)cc12` [Compound 25, 2-(6-(difluoromethoxy)pyridin-3-yl)-5-(11-fluoro-6H-pyrido[2′,3′:5,6][1,3]oxazino[3,4-a]indol-2-yl)-N-methyl-6-(N-methylmethylsulfonamido)benzofuran-3-carboxamide], the figures for the half-maximal inhibitory concentration (IC50) in the assay on HCV genotype 1a replicon and in the assay with HCV genotype 1b replicon were 3 nM and 5 nM, respectively.

On to `CNC(=O)c1c(-c2ccc(OC)nc2)oc2cc(N(C)S(C)(=O)=O)c(-c3ccc4c(n3)-c3cc5c(F)cccc5n3CO4)cc12` [Compound 11], for which the results for the IC50 in the assay on HCV genotype 1a replicon and with HCV genotype 1b replicon were 7.2 nM and 8.4 nM, respectively.

For the compound `CNC(=O)c1c(-c2ccc(OC(C)C)nc2)oc2cc(N(C)S(C)(=O)=O)c(-c3ccc4c(n3)-c3cc5c(F)cccc5n3CO4)cc12` [Compound 10], the half-inhibitory concentration (IC50) in the assay with HCV genotype 1a replicon amounted to 15 nM; with HCV genotype 1b replicon, 13 nM.
